Assays:
[1] = Antagonist activity at human D3 receptor expressed in HEK293 cells assessed as inhibition of quinpirole-stimulated mitogenesis
[2] = Agonist activity at human D3 receptor expressed in HEK293 cells assessed as stimulation of mitogenesis

Compound | IC50 [1] [nM] | EC50 [2] [nM]
COc1ccccc1N1CCN(CC(O)CCNC(=O)c2cc3cc(I)ccc3[nH]2)CC1 (centres undefined) | 173 | 
COc1ccccc1N1CCN(CCCCNC(=O)c2cc3ccccc3o2)CC1 [Benzofuran-2-carboxylic acid {4-[4-(2-methoxy-phenyl)-piperazin-1-yl]-butyl}-amide] | 2.39 | 
COc1ccccc1N1CCN(CC(O)CCNC(=O)c2cc3cc(I)ccc3o2)CC1 (centres undefined) | 14.5 | 
COc1ccccc1N1CCN(CC(O)CCNC(=O)c2cc3ccccc3s2)CC1 (centres undefined) | 39.1 | 
COc1ccc2[nH]c(C(=O)NCCC(O)CN3CCN(c4cccc(Cl)c4Cl)CC3)cc2c1 (centres undefined) | 1.51 | 
O=C(NCCC(O)CN1CCN(c2cccc(Cl)c2Cl)CC1)c1cc2cc(I)ccc2o1 (centres undefined) |  | 84
COc1ccccc1N1CCN(CC(O)CCNC(=O)c2cc3cc(F)ccc3[nH]2)CC1 (centres undefined) | 1.76 | 
COc1ccccc1N1CCN(CCCCNC(=O)c2cc3ccccc3s2)CC1 [Benzo[b]thiophene-2-carboxylic acid {4-[4-(2-methoxy-phenyl)-piperazin-1-yl]-butyl}-amide] | 0.22 | 
COc1ccc2[nH]c(C(=O)NCCC(O)CN3CCN(c4ccccc4OC)CC3)cc2c1 (centres undefined) | 1.58 | 
CCCOc1ccccc1N1CCN(CC(O)CCNC(=O)c2cc3ccccc3[nH]2)CC1 (centres undefined) | 6.51 | 
COc1ccccc1N1CCN(C/C=C/CNC(=O)c2cc3ccccc3o2)CC1 | 14.9 | 
O=C(NCC(O)CCN1CCN(c2cccc(Cl)c2Cl)CC1)c1cc2ccccc2[nH]1 (centres undefined) | 25.7 | 
O=C(NCCC(O)CN1CCN(c2cccc(Cl)c2Cl)CC1)c1cc2cc(I)ccc2[nH]1 (centres undefined) | 38 | 
O=C(NC/C=C/CN1CCN(c2cccc(Cl)c2Cl)CC1)c1cc2ccccc2[nH]1 | 7 | 
COc1ccccc1N1CCN(C/C=C/CNC(=O)c2cc3ccccc3s2)CC1 | 1.09 | 
O=C(NCCC(O)CN1CCN(c2cccc(Cl)c2Cl)CC1)c1cc2ccccc2o1 (centres undefined) |  | 22.8
COc1ccccc1N1CCN(CCCCNC(=O)c2cc3cc(I)ccc3o2)CC1 [5-Iodo-benzofuran-2-carboxylic acid {4-[4-(2-methoxy-phenyl)-piperazin-1-yl]-butyl}-amide] | 22.9 | 
COc1ccccc1N1CCN(CC(O)CCNC(=O)c2cc3ccccc3o2)CC1 (centres undefined) | 11.2 | 
COc1ccccc1N1CCN(CC(O)CCNC(=O)c2cc3ccccc3[nH]2)CC1 (centres undefined) | 12.1 | 

From BindingDB's records for doi:10.1021/jm900095y (National Institute On Drug Abuse-Intramural Research Program, 2009)
